Experimental data: ChEMBL document CHEMBL1127934, “Synthesis of a series of brominated 1-phenyl-2-pyridylethenes as inhibitors of the protein-tyrosine kinase p56lck” (Bioorg Med Chem Lett, 1994)

Columns and labels:
[1] = biological target: Tyrosine-protein kinase Lck (Homo sapiens, UniProt P06239); assay: Inhibition of p56 Lck tyrosine kinase
[2] = Inhibition of p56 Lck tyrosine kinase

Chain of Tyrosine-protein kinase Lck (P06239 whole entry): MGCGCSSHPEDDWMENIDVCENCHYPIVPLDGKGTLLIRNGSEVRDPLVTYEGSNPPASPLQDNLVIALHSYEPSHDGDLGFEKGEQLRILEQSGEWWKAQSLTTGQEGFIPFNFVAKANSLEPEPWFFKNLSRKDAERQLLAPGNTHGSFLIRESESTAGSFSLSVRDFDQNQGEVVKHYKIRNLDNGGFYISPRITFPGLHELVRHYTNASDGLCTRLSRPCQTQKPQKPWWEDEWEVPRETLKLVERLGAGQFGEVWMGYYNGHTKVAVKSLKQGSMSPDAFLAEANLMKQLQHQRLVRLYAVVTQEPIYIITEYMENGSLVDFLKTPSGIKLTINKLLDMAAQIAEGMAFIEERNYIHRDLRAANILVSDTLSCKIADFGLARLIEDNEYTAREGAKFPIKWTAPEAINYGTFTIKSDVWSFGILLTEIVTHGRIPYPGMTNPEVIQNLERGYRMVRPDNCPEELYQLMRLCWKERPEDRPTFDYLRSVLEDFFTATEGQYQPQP

| SMILES | IC50 [1] [µM] | IC50 [2] [µM] |
| --- | --- | --- |
| COc1c(Br)cc(/C=C(\C#N)c2ccccn2)cc1Br | > 2530 |  |
| COc1c(Br)cc(/C=C(\C#N)c2cccnc2)cc1Br | > 2530 |  |
| N#C/C(=C\c1cc(Br)c(O)c(Br)c1)c1ccccn1 | 105 |  |
| N#CC(Cc1cc(Br)c(O)c(Br)c1)c1ccccn1 (stereo not drawn) | > 2090 |  |
| N#C/C(=C\c1cc(Br)c(O)c(Br)c1)c1cccnc1 | 168 |  |

More lines, now with the values ahead:

| IC50 [1] [µM] | IC50 [2] [µM] | SMILES |
| --- | --- | --- |
|  | 516 | COc1cc(/C=C/c2cccnc2)cc(OC)c1OC |
|  | 2180 | COc1cc(/C=C/c2ccccn2)cc(OC)c1OC |
| 242 |  | COc1cc(/C=C(\C#N)c2cccnc2)cc(Br)c1O |
